Consider six substances from patent US11041010B2, “Hybrid peptidomimetics for use in neuropathic pain” (Uniwersytet Warszawski, priority 2017, dated 2021).

Positions of bridges follow the written chain, without caps; N, C: chain ends. Non-standard residues stand in square brackets, D forms with d. No end group written: not given here. d2Nal = N[C@H](Cc1ccc2ccccc2c1)C(=O)O; Nle = CCCC[C@H](N)C(=O)O; Ahx = NCCCCCC(=O)O; βAla = NCCC(=O)O

The test system of assay [1] is CCI mice (mouse model of neuropathic pain). Kind of assay: Mouse model of neuropathic pain (CCI), von Frey and cold plate tests taken together, intrathecal administration. Format: in vivo. The note with it: for analgesic activity of the reference compounds (mice, first stage): reason why no ED50 was calculated; for analgesic activity in neuropathic pain (mice): CCI mice, von Frey and cold plate tests, FIGS. 1-7 (B, C). On the procedure:
(§1) Albino Swiss mice were subjected to a loose unilateral ligation of the right sciatic nerve (a chronic constriction injury, CCI) according to the model developed by Bennett and Xie, Pain 33, 87-107, […]. […] The tests permitted to determine the analgesic efficiency of the novel compounds in the model of neuropathic pain. In the control mice (due to the absence of hypersensitivity, which characterizes neuropathic pain) at the same time points, a test of tail flick was conducted to determine pain threshold in the acute pain after intrathecal administration of the hybrid peptidomimetics.

Assay [2] concerns healthy mice (control mice). Kind of assay: Tail flick test, acute pain threshold in control mice after intrathecal administration. Format: in vivo, mouse. The settings on record: for analgesic activity in control mice: healthy mice, FIGS. 1-7 (A). As for the experimental part: as §1
(§2) The results were presented for doses in micrograms, at which a half (50%) of the maximum effect (ED50) is reached. Calculation of the ED50 value requires clear dose-dependent effects.

The test system of assay [3] is CCI mice (mouse model of neuropathic pain). The experiment in a line: Von Frey test (allodynia) in mice with sciatic nerve injury (CCI), intrathecal administration. Format: in vivo. The note with it: mice in the neuropathic pain model, range in brackets. On the procedure: as §1, §2
Assay [4] shares this test system. Kind of assay: Cold plate test (hyperalgesia) in mice with sciatic nerve injury (CCI), intrathecal administration. Format: in vivo. The settings on record: mice in the neuropathic pain model, cold plate 2° C., range in brackets. On the procedure:
as §1, §2

The test system of assay [5] is healthy rats (control rats). The experiment in a line: Acute pain threshold in healthy (control) rats after intrathecal administration. Format: in vivo. The note with it: 0.1 μg/5 μl/rat, FIGS. 10-13 (A).
Assay [6] relates to CCI rats (rat model of neuropathic pain). The experiment in a line: Rat model of neuropathic pain (CCI), von Frey and cold plate tests after intrathecal administration. Format: in vivo. The note with it: 0.1 μg/5 μl/rat, FIGS. 10-13 (B, C). As for the experimental part: Wistar rats were subjected to cannulation for intrathecal administration by a method of Yaksh, T. L., Rudy, T. A., described in Physiol. Behay. 17, 1031-1036, 1976, and seven days after this procedure, a loose unilateral ligation of the right sciatic nerve (a chronic constriction injury, CCI) according to the model developed by Bennett and Xie (1988). After seven days from the CCI procedure, behavioral tests were conducted: the von Frey test and cold plate test to measure hypersensitivity to tactile and thermal stimuli, respectively. Hypersensitivity developed after injury of the nerve to two types of stimuli is a symptom of neuropathy.

Assay [7] concerns CCI mice (mouse model of neuropathic pain). Kind of assay: Mouse model of neuropathic pain (CCI), von Frey and cold plate tests after intravenous administration. Format: in vivo. The note with it: CCI mice, 15, 30 and 120 min, FIGS. 8-9. As for the experimental part: In the second stage of the pharmacological studies, the effect of the peripheral, intravenous administration of the hybrid peptidomimetics according to the invention (UW3, UW5) on the sensitivity to a mechanical stimulus (A) (von Frey test) and thermal stimulus (B) (cold plate test) threshold compared to a control group receiving water for injection was tested on mice in the neuropathy model (FIGS. 8 and 9). The studies were conducted at days 7-14 from the CCI procedure on mice at 15, 30 and 120 min after intravenous administration of the hybrid peptidomimetics UW3 and UW5 in the selected doses.

With “Y[dA]GF[βAla][Nle]DH[d2Nal]RWK-NH2 (lactam 7-12) [UW4]”, the “analgesic activity of the reference compounds (mice, first stage)” value in assay [1] is “very weak and dose dependency-deprived analgesic activity”.
Take “Tyr-D-Ala-Gly-Phe-NH2 [UW1, reference compound]”: in assay [2] (control mice, dose giving 50% of maximum effect, range in brackets), the “Control mice Tail flick test ED50” value is recorded as 0.03 (0.02-0.05) μg. Besides, in assay [2], the “analgesic activity in control mice” value is “show activity”. Moreover, the “Von Frey test (allodynia) ED50” value in assay [3] was 0.16 (0.1-0.25) μg. The “Cold plate (hyperalgesia) ED50” value in assay [4] was 9.3 (2.7-32)^ μg. Moreover, in assay [1], the “analgesic activity in neuropathic pain (mice)” value (from here on “analgesic activity … (mice)”) is listed as “weakened in both or at least one hypersensitivity determining test”. In assay [5], the “analgesic activity in healthy (control) rats” value (“analgesic activity in healthy” below) is reported as “weak activity”. For the same substance, the “analgesic activity in the rat model of neuropathic pain” value (shortened to “analgesic activity in the rat model”) in assay [6] is listed as “weak activity”.
Regarding “Tyr-D-Ala-Gly-Phe-4AMB-Nle-cyclo[Asp-His-D-Nal(2′)-Arg-Trp-Lys]-NH2 [UW6]”, the “analgesic activity of the reference compounds (mice, first stage)” value in assay [1] was “very weak and dose dependency-deprived analgesic activity”.
The same measure, in the same setting: under “Y[dA]GF[dA][Nle]DH[d2Nal]RWK-NH2 (lactam 7-12) [UW2]” stands “very weak and dose dependency-deprived analgesic activity”.
As for “Y[dA]GF[Ahx][Ahx][Nle]DH[d2Nal]RWK-NH2 (lactam 8-13) [UW5]”, the “analgesic activity in control mice” value in assay [2] is “limited analgesic efficiency”. For the same substance, the “Von Frey test (allodynia) ED50” value in assay [3] is listed as 0.02 (0.00003-15) μg. In assay [4], the “Cold plate (hyperalgesia) ED50” value is on record as 0.2 (0.008-6.5) μg. Also, in assay [1], the “analgesic activity … (mice)” value is “higher analgesic efficiency”. The “analgesic efficiency after peripheral, intravenous administration” value in assay [7] was “high analgesic efficiency”. The “analgesic activity in healthy” value in assay [5] was “very weak activity”. In assay [6], the “analgesic activity in the rat model” value is “reaches maximum values”.
Consider “Y[dA]GF[Ahx][Nle]DH[d2Nal]RWK-NH2 (lactam 7-12) [UW3]”, for which, in assay [2], the “analgesic activity in control mice” value is given as “limited analgesic efficiency”. In addition, in assay [3], the “Von Frey test (allodynia) ED50” value is listed as 0.0004 (0.0001-0.002) μg. Besides, in assay [4], the “Cold plate (hyperalgesia) ED50” value was 0.008 (0.005-0.01) μg. Besides, the “analgesic activity … (mice)” value in assay [1] is “higher analgesic efficiency”. Moreover, in assay [7], the “analgesic efficiency after peripheral, intravenous administration” value is on record as “high analgesic efficiency”. Further, the “analgesic activity in healthy” value in assay [5] was “very weak activity”. Moreover, the “analgesic activity in the rat model” value in assay [6] is listed as “reaches maximum values”.
